Legend:
HIV-1 = settings: cited from earlier work
wild-type HIV-2 = assay: Anti-HIV-2 activity in MT-4 cells, MTT method; type: cell-based; settings: read-out: EC50 HIV-2
[1] = biological target: binding of CPSF6 to CA hexamer; assay: SPR-based competition assay with CPSF6; parameters: species or system HIV-1; settings: read-out: IC50 inhibition of CPSF6 binding to CA hexamer
HIV-1 NL4.3 virus = assay: Single-round infection assay, early and late stage; type: cell-based; settings: compound at 1 μM, average of 3 replicates
HIV-1 CA hexamer = settings: read-out: KD Hexamer; SPR, average of at least 3 replicates
[2] = human, microsomes
[3] = cited from earlier work
[4] = Metabolic stability in human liver microsomes; settings: HLM, 0.5 mg protein/mL; for Remaining (NCF = 60min): no co-factor (no NADPH)

Structure (SMILES)	anti-HIV-1 activity (HIV-1)	EC50 (wild-type HIV-2)	IC50 [1]	Infection (%) Early-stage (HIV-1 NL4.3 virus)	Infection (%) Late-stage (HIV-1 NL4.3 virus)	CC50 (MT-4 cells)	Kd (HIV-1 CA hexamer)	CLint(mic) [2]	EC50 (HIV-1; read-out: anti-HIV-1 potency EC50)	metabolic stability T1/2 [3]	T1/2 [4]	Remaining (T = 60min) [4]	Remaining (NCF = 60min) [4]	CLint(liver) ([4]; scaled from CLint(mic))
CC(C)(C#Cc1ccc(-c2ccc(Cl)c3c(NS(C)(=O)=O)nn(CC(F)(F)F)c23)c([C@H](Cc2cc(F)cc(F)c2)NC(=O)Cn2nc(C(F)(F)F)c3c2C(F)(F)[C@@H]2C[C@H]32)n1)S(C)(=O)=O [GS-6207]	picomolar	–	–	–	–	–	–	–	–	–	–	–	–	–
Cc1[nH]c2ccccc2c1CC(=O)N[C@@H](Cc1ccccc1)C(=O)N(C)c1ccccc1 [PF-74]	–	3790 ± 390 nM	26.6 nM	0.07 ± 0.01%	58.19 ± 12.54%	> 294000 nM	47 ± 0.6 nM	2114.6 µL/min/mg	520 to 900 nM	30 to 78 s	42 s	0.0%	106.1%	1903.1 mL/min/kg
C[C@]12CC[C@H]3[C@@H](CCC4=CC(=O)CC[C@@]43C)[C@@H]1CC[C@@H]2O [Testosterone]	–	–	–	–	–	–	–	–	–	–	–	4.8%	95.8%	–
